Results on 2 compounds are retold here after patent US4777269A, “7-Phenylacetic acid-4-alkyl-coumarinyl amides useful in fluorometric determination of the activity of hydrolases” (European Atomic Energy Community, priority 1986, dated 1988).

A short description of series [1]: Solubility of the substrates in aqueous solution / buffer. The format is physicochemical. On the procedure: The values for the PFC test are easily reproduceable since the solution of the substrate (5% ethanol) can be prepared more accurately. For the preparation of solutions of the substrate without ethanol about 24 hours are need to dissolve 1 mg of the substrate in 1 l of the buffer. The fluorometric test is particularly suited for the determination of low activities of penicillin G-acylase.
The yields obtained in the preparation of the 7-phenylacetic acid-4-alkyl-coumarinyl amides of the invention, in particular of PFC and PMC, were in the range of from 50 to 80% at a high product purity (NMR, IR). […] However, this problem may be overcome by dissolving the substrate at first in pure ethanol and then diluting it with the corresponding buffer to a mixture with 5% ethanol. In this manner concentrations of 6 mg/l can be achieved.

The target of a further series is penicillin G-acylase (Escherichia coli, UniProt P06875). Description: Kinetic study of enzymatic cleavage of the coumarinyl amides (Lineweafer-Burg-plot), fluorometric test. The settings on record: enzyme concentration constant, substrate concentration varied, 50 mM K-P-buffer, 5% ethanol. It is filed as biochemical. On the procedure: During the tests it has been observed repeatedly that the conversion rate of the reaction decreases at higher substrate concentrations. Therefore, research work for the determination of the kinetic parameters (Vmax and KM) of this reaction system had to be carried out.
The enzyme concentration in the test was kept constant and the substrate concentration (50 mM K-P-buffer 5% ethanol for both substrates) was varied.
The test mixture contains 3 μg/ml of the coumarinyl derivative as obtained in example 1, dissolved in 50 mM of a potassium-phosphate-buffer (pH 8, 5% ethanol).
At first a solution of the coumarinyl derivative in ethanol is prepared and diluted with the phosphate buffer according to the concentration values. 3 ml of the mixture are measured in a fluorescence cuvette in a spectral fluorometer (λ=440 nm for PMC; λ=495 nm for PFC) in regard to the background signal.
The reaction is started (while stirring) by the addition of 10 to 100 μl of the sample and followed. The activity of the enzyme can be estimated from the linear initial increase of the fluorescence/time-diagram after a corresponding calibration has been made.

[2] abbreviates: aqueous solution, aqueous solutions, without ethanol, read-out: solubility in aqueous solutions.
Where [3] appears, read: buffer with 5% ethanol, organic solvent or mixture, buffer mixture with 5% ethanol, read-out: achievable concentration after dissolving in pure ethanol and diluting with buffer.

Values after ≈ are worked out from the molar mass of the structure shown. Read-outs that look alike come from different tables or passages of the source.

penicillin G-acylase, sequence (P06875 290-846): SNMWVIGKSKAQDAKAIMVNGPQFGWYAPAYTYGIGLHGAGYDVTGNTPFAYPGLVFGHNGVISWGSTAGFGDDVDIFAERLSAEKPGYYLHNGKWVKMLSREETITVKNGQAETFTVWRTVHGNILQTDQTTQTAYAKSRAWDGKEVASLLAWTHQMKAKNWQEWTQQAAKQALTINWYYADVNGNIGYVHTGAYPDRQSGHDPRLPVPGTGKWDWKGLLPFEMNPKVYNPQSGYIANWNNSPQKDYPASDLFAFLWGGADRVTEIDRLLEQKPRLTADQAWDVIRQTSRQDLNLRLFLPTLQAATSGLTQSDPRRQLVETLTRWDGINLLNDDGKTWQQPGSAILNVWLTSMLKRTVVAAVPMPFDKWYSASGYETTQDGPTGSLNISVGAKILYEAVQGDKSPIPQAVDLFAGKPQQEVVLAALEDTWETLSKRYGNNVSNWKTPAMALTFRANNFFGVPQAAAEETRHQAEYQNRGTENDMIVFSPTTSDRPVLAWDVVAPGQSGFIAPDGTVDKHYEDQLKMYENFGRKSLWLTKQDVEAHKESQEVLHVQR
penicillin G-acylase, sequence (P06875 27-235): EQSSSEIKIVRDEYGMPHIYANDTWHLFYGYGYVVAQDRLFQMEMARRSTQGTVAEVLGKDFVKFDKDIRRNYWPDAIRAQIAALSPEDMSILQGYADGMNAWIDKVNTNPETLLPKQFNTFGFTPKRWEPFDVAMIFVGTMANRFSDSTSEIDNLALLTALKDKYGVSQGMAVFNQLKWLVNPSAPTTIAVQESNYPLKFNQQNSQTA

Regarding `O=C(Cc1ccccc1)Nc1ccc2c(C(F)(F)F)cc(=O)oc2c1` [PFC, 7-phenyl-acetic acid-4-trifluoromethyl-coumarinyl amide], the solubility was less than 1 µg/mL in series [1] (setting [2]) and 6 µg/mL (≈ 17.3 µM) in series [1] (setting [3]). The “kinetic behaviour at higher substrate concentrations” value on penicillin G-acylase is given as “substrate inhibition”.
In the same order, the values of `Cc1cc(=O)oc2cc(NC(=O)Cc3ccccc3)ccc12` [PMC, 7-phenylacetic acid-4-methylcoumarinyl amide] are less than 1 µg/mL, 6 µg/mL (≈ 20.5 µM) and “substrate inhibition”.
